# According to ChEMBL document CHEMBL1201862, “PubChem BioAssay data set” (2004):
#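 How tested: cells in 96-well plates exposed to compound for 48 hours at five concentrations. GI50 marks 50% less growth.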 Activity calls are given as the source filed them. No stated cut-off is given here; in the data, active = GI50 up to about 1.1 µM and inactive = higher.
# Key:
# Assay in all cases: inhibition of tumour cell growth, NCI panel, 48 h
# [1] = test system: CCRF-CEM
# [2] = test system: COLO 205
# [3] = test system: DU-145
# [4] = test system: EKVX
# [5] = test system: HL-60
# [6] = test system: IGROV-1
# [7] = test system: KM12
# [8] = test system: LOX IMVI
# [9] = test system: M14
# [10] = test system: NCI-H226
# [11] = test system: OVCAR-3
# [12] = test system: SK-MEL-28
# [13] = test system: SK-MEL-5
# [14] = test system: SK-OV-3
# [15] = test system: UACC-62
# [16] = test system: UO-31
# [17] = test system: HOP-62
# [18] = test system: T47D
SMILES,GI50 [1],GI50 [2],GI50 [3],GI50 [4],GI50 [5],GI50 [6],GI50 [7],GI50 [8],GI50 [9],GI50 [10],GI50 [11],GI50 [12],GI50 [13],GI50 [14],GI50 [15],GI50 [16],GI50 [17],GI50 [18]
O=c1[nH]c(=O)n(COCCO)c2ccc(Br)cc12,> 100 µM (inactive),> 100 µM (inactive),> 100 µM (inactive),92.3 µM (inactive),> 100 µM (inactive),77.1 µM (inactive),> 100 µM (inactive),> 100 µM (inactive),> 100 µM (inactive),25.2 µM (inactive),> 100 µM (inactive),> 100 µM (inactive),> 100 µM (inactive),> 100 µM (inactive),> 100 µM (inactive),74.3 µM (inactive),,
C(=N\OCCc1ccccc1)/c1cccnc1,> 100 µM (inactive),> 100 µM (inactive),> 100 µM (inactive),> 100 µM (inactive),5.02 µM (inactive),> 100 µM (inactive),> 100 µM (inactive),,> 100 µM (inactive),> 100 µM (inactive),> 100 µM (inactive),> 100 µM (inactive),> 100 µM (inactive),> 100 µM (inactive),> 100 µM (inactive),> 100 µM (inactive),> 100 µM (inactive),> 100 µM (inactive)
CCN(CC)CCNC(=O)c1cc2cc(NC(=O)c3cc4cc([N+](=O)[O-])ccc4[nH]3)ccc2[nH]1,,5.68 µM (inactive),14.2 µM (inactive),4.98 µM (inactive),,18.1 µM (inactive),1.71 µM (inactive),3.86 µM (inactive),57.8 µM (inactive),56.2 µM (inactive),> 40.6 µM (inactive),25.2 µM (inactive),3.85 µM (inactive),25.9 µM (inactive),32 µM (inactive),> 40.5 µM (inactive),> 77.1 µM (inactive),18.4 µM (inactive)
N#C[C@H](C(=O)c1ccccc1F)c1nc2ccccc2[nH]1,53 µM (inactive),> 100 µM (inactive),> 100 µM (inactive),> 100 µM (inactive),,60.7 µM (inactive),96.2 µM (inactive),> 100 µM (inactive),> 100 µM (inactive),> 100 µM (inactive),> 100 µM (inactive),> 100 µM (inactive),,> 100 µM (inactive),> 100 µM (inactive),93.1 µM (inactive),> 100 µM (inactive),> 100 µM (inactive)
O=C1/C(=C/c2ccc(Br)s2)NC(=S)N1c1ccccc1,> 100 µM (inactive),84.9 µM (inactive),> 100 µM (inactive),> 100 µM (inactive),> 100 µM (inactive),69.3 µM (inactive),> 100 µM (inactive),> 100 µM (inactive),,> 100 µM (inactive),62.4 µM (inactive),> 100 µM (inactive),63.2 µM (inactive),45.6 µM (inactive),47.2 µM (inactive),> 100 µM (inactive),39.1 µM (inactive),
CCn1c(-c2cc(OC)cc(OC)c2)nc2c1C(=O)c1ccccc1C2=O,> 100 µM (inactive),> 100 µM (inactive),> 100 µM (inactive),> 100 µM (inactive),> 100 µM (inactive),> 100 µM (inactive),> 100 µM (inactive),,> 100 µM (inactive),> 100 µM (inactive),> 100 µM (inactive),> 100 µM (inactive),> 100 µM (inactive),3.9 µM (inactive),20.6 µM (inactive),,64.6 µM (inactive),> 100 µM (inactive)
c1ccc2c(c1)CCc1c-2n(CCN2CCCCC2)c2ccccc12,15.6 µM (inactive),11.8 µM (inactive),39.4 µM (inactive),20.4 µM (inactive),,11.4 µM (inactive),14.9 µM (inactive),15.1 µM (inactive),13.5 µM (inactive),10.9 µM (inactive),16.6 µM (inactive),19.6 µM (inactive),0.564 µM (active),23.7 µM (inactive),14.8 µM (inactive),11.4 µM (inactive),15.8 µM (inactive),15.5 µM (inactive)
C=C(C)[C@@H]1CC[C@]2(C(=O)O)CC[C@]3(C)[C@H](CCC4[C@@]5(C)CC[C@H](C(=O)/C=C/c6ccc(O)c(O)c6)C(C)(C)[C@@H]5CC[C@]43C)[C@@H]12 (stereo not given in full),2.42 µM (inactive),2.84 µM (inactive),5.15 µM (inactive),8.55 µM (inactive),2.17 µM (inactive),4.24 µM (inactive),2.2 µM (inactive),3.34 µM (inactive),3.39 µM (inactive),,10.7 µM (inactive),,2.85 µM (inactive),4.42 µM (inactive),3.77 µM (inactive),3.58 µM (inactive),2.9 µM (inactive),5.14 µM (inactive)
